US20220409510A1, “Polypeptides And Methods For Improving Skin Conditions” (Interk Peptide Therapeutics Limited, priority 2018, published 2022)

Columns and labels:
[1] = system: CPDs in human skin explants; test: CPD formation in human skin explants after UV-irradiation; format: cell-based
Experimental: Human skin removed at elective surgery was cleaned, dissected and cut into pieces of approx. 5 mm×5 mm. Each piece was placed in a well of a 96 well plate, with individual plates prepared to assess the effects 3 hrs post treatment. All samples were performed in triplicate for each treatment. Skin was subjected to UV-radiation from solar-simulated UV source for 1.5 h (UVR), or non-irradiation (SHAM). Given that human skin is thicker than mouse skin, human skin explants were exposed to a radiation dose three times higher than that used for mouse skin, i.e., 20 J/cm2 versus 7 J/cm2, respectively, and the output spectrum of the laboratory solar simulator has previously been reported (Rybchyn MS et al, J Invest Dermatol. 2018 May; 138(5):1146-1156) and treated immediately after with a vehicle control, Calcitriol (1 nM) or the polypeptide IK34720 (SEQ ID NO: 3) at concentrations of 50 μM, 250 μM or 500 uM.
Samples harvested at 3 hrs were fixed, section, stained and quantified as described in Example 5.

[2] = system: CPD formation in the skin; test: CPD formation in the skin of mice after acute UV-irradiation; format: in vivo, Skh:hr1 hairless mice; settings: topical immediately after UVR, doses as Example 4; 3 hours post-UVR; vs vehicle
Experimental: Female Skh:hr1 hairless mice were exposed to solar simulated UV-irradiation as described above at Example 4. Immediately after irradiation mice were treated topically on the dorsal surface also as described in Example 4. Subsequently, skin was fixed at 3 hours post-UVR, and subjected to immuno-histochemical staining using the antibody directed against thymine dimers (CPD) described above at 10 μg/ml. […] In FIG. 9, dark staining in nuclei indicates the presence of thymine dimers (CPD), and the % area stained is presented. Immunohistology was quantified as per Example 4.

[3] = system: dermal fibroblasts; test: TBARS lipid peroxidation assay in UV irradiated dermal fibroblasts; format: cell-based; settings: highest concentration (5 μM) of peptide; FIG. 19
Experimental: The ability of the polypeptide RSKAKNPLYRRRRRRRRR to alter UV-induced oxidative damage of cell-derived lipids was examined using the TBARS thiobarbituric acid-reactive substances (TBARS) lipid peroxidation assay.
After irradiation or sham-irradiation of dermal fibroblasts, supernatants (900 μL) were collected. In brief, 90 μL of butylated hydroxytoluene (2% w/w in ethanol) was added and samples kept frozen (−20° C.) until the TBARS assay. Petri dishes were washed twice with 1 mL of HBSS, cells scraped in 600 μL of water and 60 μL of 0.5% aqueous Triton X100 added to this solution, for protein determination carried out by the Lowry method (Lowry OH et al, J. Biol. Chem., 1951, 193:265-275). TBARS were fluorometrically assayed as described (Morlière P et al, Biochim. Biophys. Acta, 1991, 1084:261-268). Briefly, thawing samples were heated in the presence of thiobarbituric acid in acidic conditions, and TBARS extracted with 1-butanol and fluorometrically quantified (λexc=515 nm and λem=550 nm). Tetraethoxypropane, which quantitatively yields the malondialdehyde-thiobarbituric acid adduct in the assay conditions, was used for calibration. TBARS values, expressed in malondialdehyde (MDA) equivalents, were normalized to the cell protein for each Petri dish. Each TBARS determination was performed in triplicate (e.g., with three Petri dishes per data point).

[4] = target: T1, Human rheumatoid synovial fibroblast MMP-1 (Homo sapiens, UniProt P03956); test: MMP-1 activity in vitro (fluorogenic substrate); format: biochemical; settings: 5, 10, 800 and 1000 μM; 8 nM activated enzyme; pH 7.2; FIG. 16
T1 construct: endogenous in cells; host or cells: human rheumatoid synovial fibroblasts (native proenzyme isolated from these cells)
T1 sequence (P03956 100-469): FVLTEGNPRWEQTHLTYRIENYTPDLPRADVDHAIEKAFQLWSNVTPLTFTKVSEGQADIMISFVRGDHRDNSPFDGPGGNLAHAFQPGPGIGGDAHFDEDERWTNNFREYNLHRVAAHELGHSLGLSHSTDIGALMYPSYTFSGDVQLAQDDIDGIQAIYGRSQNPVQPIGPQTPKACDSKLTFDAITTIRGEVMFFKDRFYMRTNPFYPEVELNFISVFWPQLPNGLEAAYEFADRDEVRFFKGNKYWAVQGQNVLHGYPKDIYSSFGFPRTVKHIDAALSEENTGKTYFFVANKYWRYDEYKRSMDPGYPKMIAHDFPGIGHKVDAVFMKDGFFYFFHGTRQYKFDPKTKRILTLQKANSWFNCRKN
Experimental: The effect of the polypeptide IK34720 (SEQ ID NO: 3) on MMP-1 activity was evaluated using the following protocol.
Human rheumatoid synovial fibroblast MMP-1 proenzyme, activated with APMA for 60 minutes at 37° C., was used as an active enzyme. The polypeptide IK34720 (SEQ ID NO: 3) at a concentration of 5 μM. 10 μM 800 μM and 1000 μM was pre-incubated with 8 nM activated enzyme in modified MOPS buffer pH 7.2 for 60 minutes at 37° C. The reaction was initiated by addition of […] Mca-Pro-Leu-Gly-Leu-Dap-Ala-Arg followed by a 2 hour incubation period. Determination of the amount of Mca-Pro-Leu-Gly formed was read spectrofluorimetrically at 340 nm/400 nm.

[5] = system: primary keratinocytes; test: ATP levels in primary keratinocytes exposed to ssUV (CellTiter-Glo 2.0 Assay); format: cell-based; settings: 1.5 hours after UVR, FIG. 4
Experimental: The influence of the polypeptide IK34720 (SEQ ID NO: 3) on intracellular ATP following UV exposure was assessed using the following protocol.
Primary keratinocytes were harvested as described above in Example 2 and were either exposed to ssUV-irradiation (UVR), as described above in Example 2 or not irradiated (SHAM), in the presence or absence of Calcitriol (positive control) or polypeptide IK34720 (SEQ ID NO: 3; RSKAKNPLYRRRRRRRRR), at the concentrations described in Example 2.
ATP levels were determined 1.5 hours after UVR using the CellTiter-Glo® 2.0 Assay (Promega, Wis., USA) as described previously (Rybchyn et al., vide supra, 2017). All data in FIG. 4 is shown as mean±SD. *p<0.05, **p<0.01. Cells were prepared and irradiated as described above.

Sequence: RSKAKNPLYRRRRRRRRR [IK34720, 18-residue polypeptide: … with a C-terminal polyarginine region of 8 arginines]
- percentage of CPD positive cells ([1]; 500 μM, 3 hrs, two individuals, FIG. 13A and B): statistically significantly reduced
- cells having CPDs (stained cells) ([1]; 3 hrs post irradiation/treatment, Calcitriol 1 nM, IK34720 50, 250 or 500 uM, FIG. 12): fewer stained cells
- CPD formation in the skin (CPD nuclei) [2]: inhibits CPD formation
- significant difference in TRS (TBA reactive substances) between Sham and UV irradiation [3]: not seen
- MMP-1 activity [4]: inhibits MMP-1 activation in a dose dependent manner
- ATP levels [5]: enhanced the ATP levels
